{
  "source": "patent US8822430B2",
  "about": "(Gilead Sciences, Inc., priority 2009, dated 2014)",
  "test_system": "HCV 1b RLuc cells (dicistronic genotype 1b Con1 replicon)",
  "assay": "Renilla luciferase (RLuc)-based HCV replicon reporter assay",
  "format": "cell-based, HCV genotype 1b",
  "conditions": "Hepatitis C virus, 72 h, HCV 1b RLuc replicon, 72 hours; read-out: Activity (antiviral potency [EC50])",
  "in_short": "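EC50 values were calculated by non-linear regression of Renilla luciferase signal from lysed cells after 72 h of compound exposure. Cells harboured a genotype 1b Con1 dicistronic replicon encoding RLuc. Compounds were serially diluted in DMSO from 10 mM stocks into culture media.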",
  "data": [
    {"smiles": "COC(=O)N[C@H](C(=O)N1CCC[C@H]1c1ncc(-c2ccc(-c3cccc4c(-c5cnc([C@@H]6CCCN6C(=O)[C@@H](NC(=O)OC)C(C)C)[nH]5)cccc34)cc2)[nH]1)C(C)C", "values": [
      {"measurement": "EC50", "result": 0.0032, "unit": "nM"}
    ]},
    {"smiles": "COC(=O)N[C@@H](CCOC(F)F)C(=O)N1CCC[C@H]1c1ncc(-c2ccc(-c3ccc(-c4cnc([C@@H]5CC6(CN5C(=O)[C@@H](NC(=O)OC)C(C)C)OCCO6)[nH]4)cc3)cc2)[nH]1", "values": [
      {"measurement": "EC50", "result": 0.128, "unit": "nM"}
    ]},
    {"smiles": "COC(=O)N[C@H](C(=O)N1CC2(C[C@H]1c1ncc(-c3ccc(-c4ccc(-c5cnc([C@@H]6CCCN6C(=O)[C@@H](NC(=O)OC)C6CCOCC6)[nH]5)cc4)cc3)[nH]1)OCCO2)C(C)C", "values": [
      {"measurement": "EC50", "result": 0.546, "unit": "nM"}
    ]},
    {"smiles": "COC(=O)N[C@@H](CCOCC(F)(F)F)C(=O)N1CCC[C@H]1c1ncc(-c2ccc(-c3ccc(-c4cnc([C@@H]5CCCN5C(=O)[C@@H](NC(=O)OC)C(C)C)[nH]4)cc3)cc2)[nH]1", "values": [
      {"measurement": "EC50", "result": 0.0273, "unit": "nM"}
    ]},
    {"smiles": "COC(=O)N[C@@H](CCOCC(F)(F)F)C(=O)N1CCC[C@H]1c1ncc(-c2ccc(-c3ccc(-c4cnc([C@@H]5CCCN5C(=O)[C@H](CCOCC(F)(F)F)NC(=O)OC)[nH]4)cc3)cc2)[nH]1", "values": [
      {"measurement": "EC50", "result": 0.0244, "unit": "nM"}
    ]},
    {"smiles": "COC(=O)N[C@H](C(=O)N1CC2(C[C@H]1c1ncc(-c3ccc(-c4ccc(-c5cnc([C@@H]6CC7(CN6C(=O)[C@@H](NC(=O)OC)C(C)C)OCCO7)[nH]5)cc4)cc3)[nH]1)OCCO2)C(C)C", "values": [
      {"measurement": "EC50", "result": 0.105, "unit": "nM"}
    ]},
    {"smiles": "COC(=O)N[C@H](C(=O)N1CCC[C@H]1c1ncc(-c2ccc(-c3ccc(-c4cnc([C@H]5CC6(CCC6)ON5C(=O)[C@@H](NC(=O)OC)C(C)C)[nH]4)cc3)cc2)[nH]1)C(C)C", "values": [
      {"measurement": "EC50", "result": 0.11, "unit": "nM"}
    ]},
    {"smiles": "CC[C@H](C)[C@H](NC(=O)OC)C(=O)N1C[C@@H](C#N)C[C@H]1c1ncc(-c2ccc3cc(-c4ccc(-c5cnc([C@@H]6CC7(CC7)CN6C(=O)[C@@H](NC(=O)OC)C(C)C)[nH]5)cc4)ccc3c2)[nH]1", "values": [
      {"measurement": "EC50", "result": 0.01, "unit": "nM"}
    ]},
    {"smiles": "COC(=O)N[C@H](C(=O)N1OC2(CCC2)C[C@H]1c1ncc(-c2ccc(-c3ccc(-c4cnc([C@@H]5CC6(CCC6)ON5C(=O)[C@@H](NC(=O)OC)C(C)C)[nH]4)cc3)cc2)[nH]1)C(C)C", "values": [
      {"measurement": "EC50", "result": 0.0054, "unit": "nM"}
    ]},
    {"smiles": "COC(=O)N[C@@H](CCOC(F)F)C(=O)N1CCC[C@H]1c1ncc(-c2ccc(-c3ccc4cc(-c5cnc([C@@H]6CC7(CC7)CN6C(=O)[C@@H](NC(=O)OC)C(C)C)[nH]5)ccc4c3)cc2)[nH]1", "values": [
      {"measurement": "EC50", "result": 0.0052, "unit": "nM"}
    ]},
    {"smiles": "COC(=O)N[C@H](C(=O)N1CCC[C@H]1c1ncc(-c2ccc(-c3ccc(-c4cnc([C@@H]5C[C@H](COC(F)F)CN5C(=O)[C@@H](NC(=O)OC)C(C)C)[nH]4)cc3)cc2)[nH]1)C(C)C", "values": [
      {"measurement": "EC50", "result": 0.015, "unit": "nM"}
    ]},
    {"smiles": "COC(=O)N[C@H](C(=O)N1CCC[C@H]1c1ncc(-c2ccc(-c3ccc(-c4cnc([C@@H]5C[C@@H](COC(F)F)CN5C(=O)[C@@H](NC(=O)OC)C(C)C)[nH]4)cc3)cc2)[nH]1)C(C)C", "values": [
      {"measurement": "EC50", "result": 0.0129, "unit": "nM"}
    ]},
    {"smiles": "COC(=O)NC(C(=O)N1CCC[C@H]1c1ncc(-c2ccc3cc(-c4ccc(-c5cnc([C@@H]6CCCN6C(=O)[C@@H](NC(=O)OC)C(C)C)[nH]5)cc4)ccc3c2)[nH]1)c1ccccc1", "note": "(stereo partly drawn)", "values": [
      {"measurement": "EC50", "result": 0.0092, "unit": "nM"}
    ]},
    {"smiles": "COC(=O)N[C@H](C(=O)N1CCC[C@H]1c1ncc(-c2ccc(-c3ccc4cc(-c5cnc([C@@H]6CCCN6C(=O)[C@@H](NC(=O)OC)C6CCOCC6)[nH]5)ccc4c3)cc2)[nH]1)C(C)C", "values": [
      {"measurement": "EC50", "result": 0.0193, "unit": "nM"}
    ]},
    {"smiles": "COC(=O)N[C@H](C(=O)N1CCC[C@H]1c1ncc(-c2ccc3cc(-c4ccc(-c5cnc([C@@H]6CCCN6C(=O)[C@@H](NC(=O)OC)C6CCOCC6)[nH]5)cc4)ccc3c2)[nH]1)C1CCCCC1", "values": [
      {"measurement": "EC50", "result": 0.0116, "unit": "nM"}
    ]},
    {"smiles": "COC(=O)N[C@H](C(=O)N1CCC[C@H]1c1ncc(-c2ccc3cc(-c4ccc(-c5cnc([C@@H]6CCCN6C(=O)[C@@H](NC(=O)OC)C6CCOCC6)[nH]5)cc4)ccc3c2)[nH]1)C(C)C", "values": [
      {"measurement": "EC50", "result": 0.0131, "unit": "nM"}
    ]},
    {"smiles": "COC(=O)N[C@H](C(=O)N1CCC[C@H]1c1ncc(-c2ccc3cc(-c4ccc(-c5cnc([C@@H]6CCCN6C(=O)[C@@H](NC(=O)OC)C6CCCCC6)[nH]5)cc4)ccc3c2)[nH]1)C(C)C", "values": [
      {"measurement": "EC50", "result": 0.0092, "unit": "nM"}
    ]},
    {"smiles": "COC(=O)N[C@H](C(=O)N1CCC[C@H]1c1ncc(-c2cc3c(C)c4sc(-c5cnc([C@@H]6CCCN6C(=O)[C@@H](NC(=O)OC)C(C)C)[nH]5)cc4c(C)c3s2)[nH]1)C(C)C", "values": [
      {"measurement": "EC50", "result": 0.0166, "unit": "nM"}
    ]}
  ]
}
